Experimental data from ChEMBL document CHEMBL6096705, “Identification of a Chemical Probe for BLT2 Activation by Scaffold Hopping” (J Med Chem, 2025).
Converted amounts (≈) assume the structure as drawn.

Tests used:
[1] = target: T1, Leukotriene B4 receptor 2 (Homo sapiens, UniProt Q9NPC1); assay: Agonist activity at human BLT2 expressed in CHO-K1 cells overexpressing GNA14 assessed as induction of IP-1 accumulation incubated for 90 mins by HTRF assay; assay type: functional, cell-based
T1 sequence (Q9NPC1 whole entry): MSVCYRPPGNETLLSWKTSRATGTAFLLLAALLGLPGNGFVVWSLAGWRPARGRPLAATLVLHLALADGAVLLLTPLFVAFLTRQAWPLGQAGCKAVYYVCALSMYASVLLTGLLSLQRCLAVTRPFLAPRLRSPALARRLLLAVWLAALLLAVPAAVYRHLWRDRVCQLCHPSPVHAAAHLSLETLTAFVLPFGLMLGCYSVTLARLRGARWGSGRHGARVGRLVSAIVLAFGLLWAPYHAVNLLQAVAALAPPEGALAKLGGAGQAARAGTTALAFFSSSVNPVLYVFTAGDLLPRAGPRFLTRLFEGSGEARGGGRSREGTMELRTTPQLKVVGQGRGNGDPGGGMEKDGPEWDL

[2] = target: T2, Type-1 angiotensin II receptor (Homo sapiens, UniProt P30556)
T2 sequence (P30556 whole entry): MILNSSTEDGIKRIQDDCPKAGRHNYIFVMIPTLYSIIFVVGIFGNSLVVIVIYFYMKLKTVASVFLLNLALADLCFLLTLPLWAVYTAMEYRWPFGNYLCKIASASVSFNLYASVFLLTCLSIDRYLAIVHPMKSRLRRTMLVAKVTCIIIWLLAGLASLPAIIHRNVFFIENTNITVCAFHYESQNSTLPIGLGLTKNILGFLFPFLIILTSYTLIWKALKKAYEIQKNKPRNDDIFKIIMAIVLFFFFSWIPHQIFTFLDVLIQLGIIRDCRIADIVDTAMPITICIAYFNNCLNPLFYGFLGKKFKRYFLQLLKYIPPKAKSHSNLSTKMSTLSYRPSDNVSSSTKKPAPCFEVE
Description: Antagonist activity at human AT1 receptor expressed in CHO-K1 cells co-expressing GNA14 assessed as inhibition of Val5-Angiotensin-II induced IP-1 accumulation incubated for 90 mins by HTRF assay

[3] = Aqueous solubility of compound in PBS buffer at pH 7.4 by precipitation based plate reader analysis; assay type: physicochemical
[4] = Metabolic stability in Sprague-Dawley rat liver microsomes assessed as parent compound remaining measured upto 60 mins in presence of NADPH by HPLC analysis; assay type: ADME, Microsome; settings: read-out: Stability
[5] = target: T1, Leukotriene B4 receptor 2; assay: Agonist activity at BLT2 (unknown origin); assay type: functional
[6] = target: T1, Leukotriene B4 receptor 2; assay: Agonist activity at human BLT2 expressed in CHO-K1 cells overexpressing GNAi2 assessed as inhibition of forskolin-induced cAMP accumulation preincubated for 40 mins followed by forskolin addition and measured after 20 mins by HTRF assay; assay type: functional, cell-based
[7] = target: T1, Leukotriene B4 receptor 2; assay: Displacement of FITC-labeled tracer from Lumi4 Tb-labeled BLT2 (unknown origin) expressed in CHO-K1 cells incubated for 1 hrs by Tag-lite displacement based HTRF assay; assay type: cell-based
[8] = Binding affinity to BLT1 (unknown origin); set-up: species or system Homo sapiens
[9] = Cmax in male C57BL/6J mouse at 10 mg/kg, po by LC-MS analysis; assay type: ADME, organism-based; settings: in vivo
[10] = Half-life in male C57BL/6J mouse at 10 mg/kg, po by LC-MS analysis; assay type: ADME, organism-based; settings: in vivo
[11] = Toxicity in male C57BL/6J mouse assessed as effect on normal behavior at 3 mg/kg, iv; assay type: organism-based; settings: in vivo
U2OS = assay: Cytotoxicity against human U2OS cells assessed as effect on cell viability at 10 uM measured after 24 hrs by CellTiter-Glo assay; assay type: toxicity, cell-based
[12] = Cytotoxicity against human MRC9 cells assessed as effect on cell viability at 10 uM measured after 24 hrs by CellTiter-Glo assay; assay type: toxicity, cell-based; settings: mrc9, 24 h
[13] = Toxicity in male C57BL/6J mouse assessed as effect on normal behavior at 10 mg/kg, SC; assay type: organism-based; settings: in vivo
[14] = AUC (0 to infinity) in male C57BL/6J mouse at 10 mg/kg, SC by LC-MS analysis; assay type: ADME, organism-based; settings: in vivo
[15] = Cmax in male C57BL/6J mouse at 3 mg/kg, iv by LC-MS analysis; assay type: ADME, organism-based; settings: in vivo
[16] = AUC (0 to infinity) in male C57BL/6J mouse at 10 mg/kg, po by LC-MS analysis; assay type: ADME, organism-based; settings: in vivo
HEK-293T = assay: Cytotoxicity against HEK293T cells assessed as effect on cell viability at 10 uM measured after 24 hrs by CellTiter-Glo assay; assay type: toxicity, cell-based; settings: human
[17] = Toxicity in male C57BL/6J mouse assessed as effect on normal behavior at 10 mg/kg, po; assay type: organism-based; settings: in vivo
[18] = AUC (0 to infinity) in male C57BL/6J mouse at 3 mg/kg, iv by LC-MS analysis; assay type: ADME, organism-based; settings: in vivo
HepG2 = assay: Cytotoxicity against human HepG2 cells assessed as effect on cell viability at 100 uM measured after 72 hrs by CellTiter-Glo assay; assay type: toxicity, cell-based; settings: hepg2, 72 h
[19] = Half-life in male C57BL/6J mouse at 3 mg/kg, iv by LC-MS analysis; assay type: ADME, organism-based; settings: in vivo
[20] = Oral bioavailability in male C57BL/6J mouse at 10 mg/kg by LC-MS analysis; assay type: ADME, organism-based; settings: in vivo
[21] = Tmax in male C57BL/6J mouse at 10 mg/kg, po by LC-MS analysis; assay type: ADME, organism-based; settings: in vivo
[22] = Half-life in male C57BL/6J mouse at 10 mg/kg, SC by LC-MS analysis; assay type: ADME, organism-based; settings: in vivo

`CCCCC(=O)N1Cc2cc(-c3ccccc3-c3nnn[nH]3)ccc2C1C` (stereo unspecified) showed an EC50 [1] of 1.39 µM.

`CCc1cnc(N2Cc3ccc(-c4ccccc4-c4nnn[nH]4)cc3C2)s1` gave an IC50 [2] of 79 µM, a solubility kinetic [3] of 250 µM (≈ 93.6 µg/mL) and a remaining at 1 h [4] of 89%.

For `CCCCC[C@H](O)/C=C/C=C/C/C=C\CCCC(=O)O`, the pEC50 [5] was 7.72 and the EC50 [6] was 0.0014 µM.

With `CCCCC(=O)N1Cc2ccc(-c3ccccc3-c3nnn[nH]3)cc2C1` the IC50 [2] was > 400 µM.

For `CCCCC1=NC2(CCCC2)C(=O)N1Cc1ccc(-c2ccccc2-c2nnn[nH]2)cc1` [IRBESARTAN], the IC50 [7] was ≥ 1.5 µM.

In the case of `CCCCC(=O)N1CCC2(CC1)CCN(c1ccccc1-c1nnn[nH]1)C2`, the IC50 [2] is reported as 13.6 µM, the solubility kinetic [3] is reported as ≥ 1000 µM and the remaining at 1 h [4] is reported as 99.8%.

Molecule `CCc1nnc(N2Cc3ccc(-c4ccccc4-c4nnn[nH]4)cc3C2)o1` has an IC50 [2] of 15.8 µM, a solubility kinetic [3] of 750 µM (≈ 270 µg/mL) and a remaining at 1 h [4] of 101%.

With `CCCCC/C=C\C[C@@H](O)/C=C/C=C/C=C\[C@@H](O)CCCC(=O)O` [LEUKOTRIENE_B4] the pKd [8] was 8.5.

For `CCCCC(=O)N1CC2(C1)CN(c1ccccc1-c1nnn[nH]1)C2`, the Cmax [9] was 1990 ng/mL, the half-life [10] was 154 min and the Activity [11] was “Non-toxic”. For the same molecule, the Activity (U2OS) was “Non-toxic”, the Activity [12] was “Non-toxic” and the Activity [13] was “Non-toxic”. The AUC(0-inf) [14] was 4080 ng·h/mL, the Cmax [15] was 3290 ng/mL and the AUC(0-inf) [16] was 1730 ng·h/mL. The Activity (HEK-293T) was “Non-toxic”, the Activity [17] was “Non-toxic” and the AUC(0-inf) [18] was 1020 ng·h/mL. For the same molecule, the Activity (HepG2) was “Non-toxic”, the half-life [19] was 19 min and the bioavailability [20] was 51%. For the same molecule, the solubility kinetic [3] was ≥ 1000 µM, the remaining at 1 h [4] was 97.5% and the Tmax [21] was 15 min. It also gave a half-life [22] of 62 min.

With `CCCCC(=O)N(Cc1ccc(-c2ccccc2C(=O)O)cc1)c1ccccc1` the IC50 [7] was 0.063 µM, the Activity (HepG2) was “Non-toxic” and the IC50 [2] was 53 µM. The solubility kinetic [3] was 250 µM (≈ 96.9 µg/mL) and the remaining at 1 h [4] was 66%.

In the case of `CCCCC(=O)N1CCc2ccc(-c3ccccc3C(=O)O)cc2C1`, the EC50 [1] is reported as 18.4 µM.

`CCCCC1(C)C(=O)N(Cc2ccc(-c3ccccc3C(=O)O)cc2)c2ccccc21` (stereo unspecified) gave an IC50 [2] of 58 µM.
